Measured values published in ChEMBL document CHEMBL5338747, “Discovery of Quaternized Pyridine-Thiazole-Pleuromutilin Derivatives with Broad-Spectrum Antibacterial and Potent Anti-MRSA Activity” (J Med Chem, 2023).
Calls of active or inactive are those of the source. No cut-off for these calls is given here.

Experiments:
Staphylococcus aureus [1] = assay: Antibacterial activity against methicillin-resistant Staphylococcus aureus 206 assessed as inhibition of bacterial growth incubated for 24 hrs by broth microdilution method; type: functional
Staphylococcus aureus [2] = assay: Antibacterial activity against methicillin-resistant Staphylococcus aureus ATCC 33591 assessed as inhibition of bacterial growth incubated for 24 hrs by broth microdilution method; type: functional
Staphylococcus aureus [3] = assay: Bactericidal activity against methicillin-resistant Staphylococcus aureus ATCC 33591 assessed as reduction in bacterial colonies formation at MIC incubated for 24 hrs in MHB followed by culturing on agar plate for 24 hrs by time-kill kinetics based analysis; type: functional; details: time 48 hrs
Cell membrane [4] = assay: Disruption of bacterial cell membrane in methicillin-resistant Staphylococcus aureus ATCC 33591 assessed as severe depression on the cell surface,cell rupture and leakage of intracellular components at 4XMIC incubated for 4 hrs by FESEM analysis; type: subcellular
Staphylococcus aureus [5] = assay: Antibacterial activity against methicillin-resistant Staphylococcus aureus ATCC 33591 infected in Kunming mouse assessed as reduction in number of inflammatory cells in liver at 10 mg/kg, ip for 2 days starting from 1 hr post-infection by hematoxylin-eosin staining based analysis; type: functional, organism-based; details: time 2.0 day
[6] = Cytotoxicity against human HEK293 cells assessed as reduction in cell viability measured after 48 hrs by CCK8 assay; type: toxicity, cell-based
Cell membrane [7] = assay: Disruption of bacterial cell membrane in Escherichia coli ATCC 25922 assessed as increase in red fluorescence intensity at MIC incubated for 2 hrs by MycoLightGreen1198/PI staining based confocal laser scanning microscopy
Staphylococcus aureus [8] = assay: Antibacterial activity against methicillin-resistant Staphylococcus aureus 596 assessed as inhibition of bacterial growth incubated for 24 hrs by broth microdilution method; type: functional
Cell membrane [9] = assay: Disruption of bacterial cell membrane in methicillin-resistant Staphylococcus aureus ATCC 33591 assessed as reduction in green fluorescence intensity at MIC incubated for 2 hrs by MycoLightGreen1198/PI staining based confocal laser scanning microscopy; type: subcellular
Cell membrane [10] = assay: Disruption of bacterial cell membrane in methicillin-resistant Staphylococcus aureus ATCC 33591 incubated for 4 hrs by FESEM analysis; type: subcellular
[11] = Metabolic stability in Sprague-Dawley rat assessed as parent compound remaining at 3 mg/kg, po measured after 10 mins by LC-MS analysis; type: ADME, organism-based; details: in vivo, read-out: Stability
Cell membrane [12] = assay: Disruption of bacterial cell membrane in Escherichia coli ATCC 25922 assessed as increase in fluorescence intensity at 8XMIC measured within 3 mins by DiBAC4(3) dye based fluorescence analysis relative to control
Escherichia coli [13] = assay: Antibacterial activity against Escherichia coli CMCC 44103 assessed as inhibition of bacterial growth incubated for 24 hrs by broth microdilution method; type: functional
Staphylococcus aureus [14] = assay: Antibacterial activity against methicillin-resistant Staphylococcus aureus ATCC 33591 infected in Kunming mouse assessed as reduction in bacterial load in lungs at 5 to 10 mg/kg, ip for 2 days starting from 1 hr post-infection by hematoxylin-eosin staining based analysis; type: functional, organism-based; details: dose 5-10 mg/kg, time 2.0 day
Acinetobacter baumannii = assay: Antibacterial activity against Acinetobacter baumannii ATCC 19606 assessed as inhibition of bacterial growth incubated for 24 hrs by broth microdilution method; type: functional
[15] = system: Staphylococcus epidermidis; assay: Antibacterial activity against methicillin-resistant Staphylococcus epidermidis ATCC 51625 assessed as inhibition of bacterial growth incubated for 24 hrs by broth microdilution method; type: functional
Escherichia coli [16] = assay: Bactericidal activity against Escherichia coli ATCC 25922 assessed as reduction in bacterial colonies formation at 4XMIC incubated for 4 hrs in MHB followed by culturing on agar plate for 24 hrs by time-kill kinetics based analysis; type: functional; set-up: scale not given: the % may be the effect or the level left; details: time 28 hrs
Staphylococcus aureus [17] = assay: Antibacterial activity against methicillin-resistant Staphylococcus aureus ATCC 33591 infected in Kunming mouse assessed as animal survival rate at 10 mg/kg, ip for 7 days starting from 1 hr post-infection; type: functional; details: ATCC 33591, 168 h, time 7 day
[18] = Volume of distribution at steady state in Sprague-Dawley rat at 1 mg/kg, iv by LC-MS analysis; type: ADME, organism-based; details: in vivo, read-out: Vdss
Staphylococcus aureus [19] = assay: Antibacterial activity against methicillin-resistant Staphylococcus aureus ATCC 33591 infected in Kunming mouse assessed as animal survival rate at 3 mg/kg, ip for 7 days starting from 1 hr post-infection; type: functional; details: ATCC 33591, 168 h, time 7 day
Cell membrane [20] = assay: Disruption of bacterial cell membrane in Escherichia coli ATCC 25922 assessed as increase in red fluorescence intensity at 4XMIC incubated for 2 hrs by MycoLightGreen1198/PI staining based confocal laser scanning microscopy
Escherichia coli [21] = assay: Disruption of biofilm formation in Escherichia coli ATCC 25922 assessed as inhibition of biofilm formation at 4XMIC measured after 24 hrs by crystal violet staining based analysis; type: functional
Cell membrane [22] = assay: Disruption of bacterial cell membrane in Escherichia coli ATCC 25922 assessed as reduction in green fluorescence intensity at MIC incubated for 2 hrs by MycoLightGreen1198/PI staining based confocal laser scanning microscopy
[23] = Cytotoxicity against human A549 cells assessed as reduction in cell viability measured after 48 hrs by CCK8 assay; type: toxicity, cell-based
Staphylococcus aureus [24] = assay: Antibacterial activity against methicillin-resistant Staphylococcus aureus 171 assessed as inhibition of bacterial growth incubated for 24 hrs by broth microdilution method; type: functional
Salmonella enterica = assay: Antibacterial activity against Salmonella enterica ATCC 14028 assessed as inhibition of bacterial growth incubated for 24 hrs by broth microdilution method; type: functional
Cell membrane [25] = assay: Disruption of bacterial cell membrane in Escherichia coli ATCC 25922 assessed as severe depression on the cell surface,cell rupture and leakage of intracellular components at 4XMIC incubated for 4 hrs by FESEM analysis; type: subcellular
Staphylococcus aureus [26] = assay: Antibacterial activity against methicillin-resistant Staphylococcus aureus ATCC 33591 infected in Kunming mouse assessed as reduction in bacterial load in liver at 5 to 10 mg/kg, ip for 2 days starting from 1 hr post-infection by hematoxylin-eosin staining based analysis; type: functional, organism-based; details: dose 5-10 mg/kg, time 2.0 day
Staphylococcus aureus [27] = assay: Potency index, ratio of moxifloxacin MIC to test compound MIC for antibacterial activity against methicillin-resistant Staphylococcus aureus 171; type: functional
Cell membrane [28] = assay: Disruption of bacterial cell membrane in methicillin-resistant Staphylococcus aureus ATCC 33591 assessed as increase in red fluorescence intensity at MIC incubated for 2 hrs by MycoLightGreen1198/PI staining based confocal laser scanning microscopy; type: subcellular
[29] = Tmax in Sprague-Dawley rat at 1 mg/kg, iv by LC-MS analysis; type: ADME, organism-based; details: in vivo
[30] = Cytotoxicity against human HepG2 cells assessed as reduction in cell viability measured after 48 hrs by CCK8 assay; type: toxicity, cell-based
[31] = system: Mesomycoplasma hyopneumoniae; assay: Anti-mycoplasma activity against Mycoplasma hyopneumoniae LH assessed as inhibition of mycoplasma growth measured after 7 days by broth microdilution method; type: functional; details: 168 h, time 7 day
Cell membrane [32] = assay: Disruption of bacterial cell membrane in Escherichia coli ATCC 25922 assessed as increase in fluorescence intensity by DiBAC4(3) dye based fluorescence analysis; type: subcellular
Metamycoplasma hominis = assay: Anti-mycoplasma activity against Mycoplasma hominis PG-21 ATCC23114 assessed as inhibition of mycoplasma growth measured after 7 days by broth microdilution method; type: functional; details: PG-21 ATCC23114, 168 h, time 7 day

C=C[C@]1(C)C[C@@H](OC(=O)CSc2nc(-c3cc[n+](Cc4ccc(C)cc4)cc3)cs2)[C@]2(C)[C@H](C)CC[C@]3(CCC(=O)[C@H]32)[C@@H](C)[C@@H]1O.[Br-]
MIC (Staphylococcus aureus [1]): 2 µg/mL
MIC (Staphylococcus aureus [2]): 1 µg/mL
Activity (Staphylococcus aureus [3]): 4.5 log10CFU/ml
Activity (Cell membrane [4]): Active
Activity (Staphylococcus aureus [5]): Active
CC50 at 48 h [6]: > 100 µM
Activity (Cell membrane [7]): Active
MIC (Staphylococcus aureus [8]): 2 µg/mL
Activity (Cell membrane [9]): Active
Activity (Cell membrane [10]): Dose-Dependent Effect
remaining at 10 min [11]: 0%
fold change (FC) (Cell membrane [12]): 6
MIC (Escherichia coli [13]): 0.5 µg/mL
Activity (Staphylococcus aureus [14]): Active
MIC (Acinetobacter baumannii): 1 µg/mL
MIC [15]: 1 µg/mL
Activity (Escherichia coli [16]): 100%
survival at 10 mg/kg (Staphylococcus aureus [17]): 71.4%
Vd [18]: 2.1 L/kg
survival at 3 mg/kg (Staphylococcus aureus [19]): 42.9%
Activity (Cell membrane [20]): 100%
inhibition (INH) (Escherichia coli [21]): 84.02%
Activity (Cell membrane [22]): Active
CC50 at 48 h [23]: > 100 µM
MIC (Staphylococcus aureus [24]): 4 µg/mL
MIC (Salmonella enterica): 2 µg/mL
Activity (Cell membrane [25]): Active
Activity (Staphylococcus aureus [26]): Active
Ratio (Staphylococcus aureus [27]): 8
Activity (Cell membrane [28]): Active
Tmax [29]: 1.8 min
CC50 at 48 h [30]: 89.8 µM
MIC [31]: 0.002 µg/mL
Activity (Cell membrane [32]): Dose-Dependent Effect
MIC (Metamycoplasma hominis): 0.015 µg/mL
